Tested on: luciferase
Assay type: in vivo, BALB/c mice
Conditions: LNP with the indicated cationic lipid; 3 μg Luciferase mRNA-LNP intradermal

SMILES | delivery of mRNA (expression of luciferase measured by IVIS)
CCCCCCCCC(CCCCCC)C(=O)OCCCCCCN(CCCCCCOC(=O)C(CCCCCC)CCCCCCCC)CCN(C)C (stereo not drawn) [Compound I-5] | effectively delivered
CCCCCCCCC(CCCCCC)C(=O)OCCCCCCCCCN(CCCCCCCCCOC(=O)C(CCCCCC)CCCCCCCC)CCN(C)C (stereo not drawn) [Compound I-6] | effectively delivered
CCCCCCCCC(=O)N(CCCN(C)C)C(CCCCCCCCC(=O)OCC(CCCC)CCCCCC)CCCCCCCCC(=O)OCC(CCCC)CCCCCC (stereo not drawn) [II-9] | effectively delivered
CCCCCCCC(=O)N(CCCN(C)C)C(CCCCCCCCC(=O)OC(CCCCCC)CCCCCC)CCCCCCCCC(=O)OC(CCCCCC)CCCCCC [II-10] | effectively delivered
CCCCCCCCC(=O)N(CCCN(C)C)C(CCCCCCCCC(=O)OC(CCCCCC)CCCCCC)CCCCCCCCC(=O)OC(CCCCCC)CCCCCC [II-11] | effectively delivered
CCCCCCCCC(CCCCCC)COC(=O)CCCCCCCCC(CCCCCCCCC(=O)OCC(CCCCCC)CCCCCCCC)N(CCCN(C)C)C(=O)CCCCCCC (stereo not drawn) [II-12] | effectively delivered
CCCCCCCCC(=O)N(CCCN1CCCC1)C(CCCCCCCCC(=O)OCC(CCCC)CCCCCC)CCCCCCCCC(=O)OCC(CCCC)CCCCCC (stereo not drawn) [II-36] | effectively delivered
CCCCCCCCC(CCCCCC)C(=O)OCCCCCCN(CCCCO)CCCCCCOC(=O)C(CCCCCC)CCCCCCCC (stereo not drawn) [III-3] | effectively delivered
CCCCCCCCC(CCCCCC)C(=O)OCCCCCCN(CCCCCO)CCCCCCOC(=O)C(CCCCCC)CCCCCCCC (stereo not drawn) [III-7] | effectively delivered

Reference: US20190274968A1 (priority 2016, published 2019)
